Biological target: T1, chimeric protein PPARγ-Gal4 (Homo sapiens, UniProt P37231)
T1 construct: expressed in transfected cells; host or cells: CV-1 cells (monkey kidney cells)
T1 sequence (P37231 238-503 limits assumed): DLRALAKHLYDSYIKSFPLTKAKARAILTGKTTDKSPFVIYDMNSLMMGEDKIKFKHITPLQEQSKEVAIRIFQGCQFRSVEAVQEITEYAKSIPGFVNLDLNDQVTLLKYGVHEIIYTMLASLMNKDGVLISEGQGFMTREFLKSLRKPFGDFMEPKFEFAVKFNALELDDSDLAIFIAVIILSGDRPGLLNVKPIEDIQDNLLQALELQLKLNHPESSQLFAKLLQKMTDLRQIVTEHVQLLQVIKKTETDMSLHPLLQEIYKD
Test: PPARγ-Gal4 transactivation (luciferase reporter) test in CV-1 cells
Type: cell-based
Description: The measurement of the PPAR activation was performed according to a technique described by Lehmann et al. (J. Biol. Chem., 270, (1995), 12953-12956).
CV-1 cells (monkey kidney cells) are cotransfected with an expression vector for the chimeric protein PPARγ-Gal4 and with a “reporter” plasmid that allows expression of the luciferase gene placed under the control of a promoter comprising Gal4 response elements.
The cells are seeded in 96-well microplates and cotransfected using a commercial reagent with the reporter plasmid (pG5-tk-pGL3) and the expression vector for the chimeric protein (PPARγ-Gal4). After incubation for 4 hours, whole culture medium (comprising 10% foetal calf serum) is added to the wells. After 24 hours, the medium is removed and replaced with whole medium comprising the test products. The products are left in contact with the cells for 18 hours. The cells are then lysed and the luciferase activity is measured using a luminometer. A PPARγ activation factor can then be calculated by means of the activation of the expression of the reporter gene induced by the product (relative to the control cells that have received no product).
In the absence of the PPARγ ligand binding domain (vector expressing Gal4 alone), the luciferase activity measured in the presence of an agonist is zero.
The following transactivation result was obtained with a concentration of 10 μM on PPARγ.
The transactivation test using the expression of a chimeric protein Gal-4-PPARγ makes it possible to determine also whether an agonist functions as a “full” agonist or as a “partial” agonist in this system.
An agonist is “partial” in this system if it induces a weaker response, i.e. it has lower efficacy, than rosiglitazone, which is a “full” agonist. In concrete terms, in our system, the transactivation obtained at the plateau with a partial agonist will be between 20% and 50% of the maximum response (efficacy) at the plateau of rosiglitazone.

Row | Activation factor of the chimeric protein PPARγ-Gal4 (10 μM, CV-1 cells (monkey kidney cells), 18 hours contact, relative to control cells without agonist (=1)) | Concentration to reach the maximum stimulation of the PPARγ chimeric protein (CV-1 cells, Gal-4-PPARγ transactivation test) | Emax (transactivation at the plateau relative to maximum response (efficacy) of rosiglitazone, CV-1 cells, read-out: Maximum stimulation of the PPARγ chimeric protein obtained with rosiglitazone) | Compound
1 | 5.8 | – | – | COc1ccccc1OC(CCC=Cc1cc(F)ccc1OCCc1nc(-c2ccccc2)oc1C)C(=O)O (stereo not drawn) [Example 44, 6-{5-fluoro-2-[2-(5-methyl-2-phenyloxazol-4-yl)ethoxy]phenyl}-2-(2-methoxyphenoxy)hex-5-enoic acid]
2 | – | 10 µM | 19% | CCc1ccc(CCOc2ccc(F)cc2C=CCCC(Oc2ccc(C(F)(F)F)cc2)C(=O)O)nc1 (stereo not drawn) [Example 51, 6-{2-[2-(5-ethylpyridin-2-yl)ethoxy]-5-fluorophenyl)-2-(4-trifluoromethyl-phenoxy)hex-5-enoic acid]

Source: patent US20080194608A1, “6-Phenylhex-5-Enoic Acid Derivatives, Process for the Preparation Thereof, Pharmaceutical Compositions Comprising Them, and Therapeutic Uses Thereof” (priority 2005, published 2008)
